Test results as given in patent US11135223B2, “Compositions and methods for inhibiting Dkk-1” (YALE UNIVERSITY, priority 2016, dated 2021).

B1: Dkk-1: Wnt antagonist Dickkopf-1 protein, expressed in CHO cells, added to cells or injected into mice (protein, UniProt O94907 32-266, looked up)
Dickkopf-related protein 1: TLNSVLNSNAIKNLPPPLGGAAGHPGSAVSAAPGILYPGGNKYQTIDNYQPYPCAEDEECGTDEYCASPTRGGDAGVQICLACRKRRKRCMRHAMCCPGNYCKNGICVSSDQNHFRGEIEETITESFGNDHSTLDGYSRRTTLSSKMYHTKGQEGSVCLRSSDCASGLCCARHFWSKICKPVLKEGQVCTKHRRKGSHGLEIFQRCYCGEGLSCRIQKDHHQASNSSRLHTCQRH

Columns and labels:
[1] = system: leukocyte-platelet aggregate (CD45+CD41+ population); assay: Leukocyte-platelet aggregate (LPA) formation and PSGL-1 expression in peripheral blood, L. major infection; format: in vivo, mice
Excerpt: FIG. 12, comprising FIG. 12A through FIG. 12G, depicts results of experiments showing regulation of LPA formation by Dkk-1. FIG. 12A depicts AMNIS analysis of peripheral blood from 6-week old C57BL/6 male mice. FIG. 12B depicts flow cytometry analysis of the basal LPA population (CD45^+CD41^+) Dkk-1^d/d mice and their wildtype littermate controls. B-cell and CD4 T cell among CD45^+CD41^+ cells were monitored at the indicated time points in Dkk-1^d/d mice and their wildtype littermate controls challenged with 30 μg HDM extract/mouse. FIG. 12C depicts flow cytometry analysis of LPA formation in total CD45^+ cells, CD4 T cells, and neutrophils, in mice injected with Dkk-1 inhibitor (n=5) or DMSO vehicle (n=5) 24 hours prior to infection with L. major. FIG. 12D depicts flow cytometry analysis of peripheral blood at given time points for LPA formation in nine-week old C57BL/6 mice (n=5) injected with 300 ng of Dkk-1. […] Mean fluorescence intensity was normalized to unchallenged C57BL/6 mice. […] Normalized MFI for ICAM-1 expression and the percentages of LFA-1 high cells were measured by flow cytometry following injection of 300 ng of Dkk-1 intraperitoneally. […]
Human platelets were isolated as described from healthy volunteers (Tang et al., 2011, J Clin Invest 121:4462-76). […] Samples were analyzed by flow cytometry within 4 to 6 hours. […]

[2] = system: leukocytes; assay: Exogenous administration of Dkk-1 protein to mice; format: in vivo, C57BL/6 mice
Experimental: FIG. 11, comprising FIG. 11A through FIG. 11J, depicts results of experiments showing Dkk-1 facilitates leukocyte migration and regulates leukocyte-platelet aggregate formation in type 2 inflammation. FIG. 11A depicts flow cytometry analysis of CD45^+ cells in lung homogenates from nine-week old Dkk-1^d/d mice and wildtype littermate controls (n=5-6/group) 72 hours after challenge with 30 μg HDM allergen extract. FIG. 11B depicts analysis of percentages of CD45^+CD41^+ cells in peripheral blood from nine-week old Dkk-1^d/d mice and wildtype littermate controls collected at 4 hours and 24 hours after allergen challenge. FIG. 11C depicts flow cytometry analysis of CD45+ cells after Dkk-1 protein (300 ng/mouse) was injected intraperitoneally. […]
FIG. 12, comprising FIG. 12A through FIG. 12G, depicts results of experiments showing regulation of LPA formation by Dkk-1. […] B-cell and CD4 T cell among CD45^+CD41^+ cells were monitored at the indicated time points in Dkk-1^d/d mice and their wildtype littermate controls challenged with 30 μg HDM extract/mouse. […] Mean fluorescence intensity was normalized to unchallenged C57BL/6 mice. […] Normalized MFI for ICAM-1 expression and the percentages of LFA-1 high cells were measured by flow cytometry following injection of 300 ng of Dkk-1 intraperitoneally. […]

Molecule	PSGL-1 expression on leukocytes ([1]; L. major infection, peripheral blood)	elevation of LPA formation ([1]; pretreatment 24 h prior to infection with L. major, 4 h post-infection)	LPA formation ([2]; 300 ng of Dkk-1, without allergen or parasite challenge)	number of infiltrated leukocytes in the lung ([2]; 300 ng/mouse intraperitoneally, 72 hours after administration)
NCC1CCN(c2nccc(-c3ccc4ccccc4c3)n2)CC1 [WAY-262611, (1-(4-(naphthalen-2-yl)pyrimidin-2-yl)piperidin-4-yl)methanamine]	blocked the increase	reduced	–	–
B1	–	–	increased	did not increase
